Assay results from PMC11068563, “The MCU and MCUb amino-terminal domains tightly interact: mechanisms for low conductance assembly of the mitochondrial calcium uniporter complex” (iScience, 2024).
One block for each molecule: values may come before it.

Tests used:
[1] = molecular target: T1, MCUb-NTD (MCUb58-159) (Homo sapiens, UniProt Q9NWR8); test: ANS fluorescence titration, one-site fit; type: binding; details: read-out: apparent KD
T1 construct: N-terminal domain, residues 58-159; pET-28a, E. coli BL21(DE3) codon plus; N-terminal 6xHis tag cut with thrombin
T1 sequence (Q9NWR8 58-159): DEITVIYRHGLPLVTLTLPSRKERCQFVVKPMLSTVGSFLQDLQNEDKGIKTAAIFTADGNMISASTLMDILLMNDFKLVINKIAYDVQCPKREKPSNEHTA

[2] = molecular target: T2, MCU-NTD-fluorescein (MCU residues 72-189 labelled with fluorescein-MTS at Cys97) (human, UniProt Q8NE86-1 72-189, fluorescein (fluorescein-methane thiosulfonate) on Cys97); test: other fluorescence titration; steady-state fluorescein fluorescence; 0.1 uM MCU-NTD-fluorescein titrated with MCUb-NTD; 20 mM Tris (pH 8.5), 150 mM NaCl, 1 mM DTT, 0.0001% (v/v) NP-40, 22.5°C; one-site model; details: both partners purified
T2 construct: mitochondrial calcium uniporter (MCU), Homo sapiens, GenBank NP_612366.1, residues 72-189 (amino-terminal domain); Same chain as m2, with the label; also called fluorescein-MCU-NTD; MCU_(72-189) labeled
T2 sequence (looked up): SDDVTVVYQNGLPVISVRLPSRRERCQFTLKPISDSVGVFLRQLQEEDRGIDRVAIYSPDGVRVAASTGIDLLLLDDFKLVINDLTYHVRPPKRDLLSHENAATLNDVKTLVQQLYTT

Kd [1]: 1500 ± 600 nM
Molecule: O=S(=O)(O)c1cccc2cccc(Nc3ccccc3)c12 [ANS, 8-Anilinonapthalene 1-sulfonic acid]

Kd [2]: 125 nM
B1: MCUb amino-terminal domain (MCUb-NTD), MCUb residues 58-159 (domain or fragment, human, UniProt Q9NWR8 58-159, looked up)
chain: T1 sequence (Q9NWR8 58-159)
notes: MCU dominant negative beta subunit (MCUb), Homo sapiens, GenBank NP_060388.2, residues 58-159 (amino-terminal domain); Cloned into pET-28a by NheI and XhoI; printed as 6xHis-MCUb_(58-159); theoretical monomer mass 12.0098 kDa and 107 expected backbone amides are printed, so a few vector residues probably remain after thrombin cleavage (surmise); also called MCUb_(58-159); 15N-MCUb-NTD; source: E. …
